Experimental findings from PubChem BioAssay AID1259407 (Chemical Carcinogenesis Research Information System (CCRIS), 2018) are described below.

The test system of the series is CCRIS mutagenicity, Ames/micronucleus/aberration tests. In words: CCRIS mutagenicity studies.
Where [1] appears, read: Test System: AMES SALMONELLA TYPHIMURIUM, Strain/Indicator: TA98, Metabolic Activation: HAMSTER, LIVER, S-9, AROCLOR 1254, Method: STANDARD PLATE.
Setting [2] is: Test System: AMES SALMONELLA TYPHIMURIUM, Strain/Indicator: TA98, Metabolic Activation: NONE, Method: STANDARD PLATE.
Where [3] appears, read: Test System: AMES SALMONELLA TYPHIMURIUM, Strain/Indicator: TA98, Metabolic Activation: RAT, LIVER, S-9, AROCLOR 1254, Method: STANDARD PLATE.
Setting [4] is: Test System: AMES SALMONELLA TYPHIMURIUM, Strain/Indicator: TA100, Metabolic Activation: HAMSTER, LIVER, S-9, AROCLOR 1254, Method: STANDARD PLATE.
[5] abbreviates: Test System: AMES SALMONELLA TYPHIMURIUM, Strain/Indicator: TA100, Metabolic Activation: NONE, Method: STANDARD PLATE.
[6] abbreviates: Test System: AMES SALMONELLA TYPHIMURIUM, Strain/Indicator: TA100, Metabolic Activation: RAT, LIVER, S-9, AROCLOR 1254, Method: STANDARD PLATE.
Where [7] appears, read: Test System: AMES SALMONELLA TYPHIMURIUM, Strain/Indicator: TA1535, Metabolic Activation: HAMSTER, LIVER, S-9, AROCLOR 1254, Method: STANDARD PLATE.
[8] abbreviates: Test System: AMES SALMONELLA TYPHIMURIUM, Strain/Indicator: TA1535, Metabolic Activation: NONE, Method: STANDARD PLATE.
[9] abbreviates: Test System: AMES SALMONELLA TYPHIMURIUM, Strain/Indicator: TA1535, Metabolic Activation: RAT, LIVER, S-9, AROCLOR 1254, Method: STANDARD PLATE.
Setting [10] is: Test System: AMES SALMONELLA TYPHIMURIUM, Strain/Indicator: TA1537, Metabolic Activation: HAMSTER, LIVER, S-9, AROCLOR 1254, Method: STANDARD PLATE.
[11] abbreviates: Test System: AMES SALMONELLA TYPHIMURIUM, Strain/Indicator: TA1537, Metabolic Activation: NONE, Method: STANDARD PLATE.
Setting [12] is: Test System: AMES SALMONELLA TYPHIMURIUM, Strain/Indicator: TA1537, Metabolic Activation: RAT, LIVER, S-9, AROCLOR 1254, Method: STANDARD PLATE.
Where [13] appears, read: Test System: MOUSE LYMPHOMA, Strain/Indicator: L5178Y (TK+/TK-), Metabolic Activation: NONE, Method: SUSPENSION/PLATE.
The mark [14] stands for this setting: Test System: MOUSE LYMPHOMA, Strain/Indicator: L5178Y (TK+/TK-), Metabolic Activation: RAT, LIVER, S-9, AROCLOR 1254, Method: SUSPENSION/PLATE.
The mark [15] stands for this setting: Test System: AMES SALMONELLA TYPHIMURIUM, Strain/Indicator: TA98, Metabolic Activation: NONE, Method: PREINCUBATION
Setting [16] is: Test System: AMES SALMONELLA TYPHIMURIUM, Strain/Indicator: TA100, Metabolic Activation: NONE, Method: PREINCUBATION

Calls of active or inactive are those of the source. No rule for the calls is given here.

Turning to `CCC/C=N/O`, the mutagenic call runs as follows: under setting [1], “inactive; negative”; under setting [2], “inactive; negative”; under setting [3], “inactive; negative”; under setting [4], “inactive; negative”; under setting [5], “inactive; negative”; under setting [6], “inactive; negative”. Further, the mutagenic call reads like this: under setting [7], “inactive; negative”; under setting [8], “inactive; negative”; under setting [9], “inactive; negative”; under setting [10], “inactive; negative”; under setting [11], “inactive; negative”; under setting [12], “inactive; negative”. For the same compound, the mutagenic call was “inactive; negative” (Test System: AMES SALMONELLA TYPHIMURIUM, Strain/Indicator: TA1538, Metabolic Activation: HAMSTER, LIVER, S-9, AROCLOR 1254, Method: STANDARD PLATE); “inactive; negative” (Test System: AMES SALMONELLA TYPHIMURIUM, Strain/Indicator: TA1538, Metabolic Activation: NONE, Method: STANDARD PLATE); “inactive; negative” (Test System: AMES SALMONELLA TYPHIMURIUM, Strain/Indicator: TA1538, Metabolic Activation: RAT, LIVER, S-9, AROCLOR 1254, Method: STANDARD PLATE); “active; positive. reevaluation of results: positive” under setting [13]; “inactive; negative. reevaluation of results: negative” under setting [14].

Take `O=C1C=Cc2c(ccc3cc4ccccc4cc23)C1=O`: the mutagenic call (Test System: AMES SALMONELLA TYPHIMURIUM, Strain/Indicator: TA97A, Metabolic Activation: NONE, Method: PREINCUBATION) is “inactive; negative”; the mutagenic call under setting [15] was “inactive; negative”; the mutagenic call under setting [16] was “inactive; negative”; the mutagenic call (Test System: AMES SALMONELLA TYPHIMURIUM, Strain/Indicator: TA102, Metabolic Activation: NONE, Method: PREINCUBATION) is “inactive; negative”; the mutagenic call (Test System: AMES SALMONELLA TYPHIMURIUM, Strain/Indicator: TA104, Metabolic Activation: NONE, Method: PREINCUBATION) was “inactive; negative”.

For the compound `COc1cc2oc(-c3ccc(O)cc3)c(O)c(=O)c2cc1OC`, the mutagenic call runs as follows: under setting [15], “inactive; negative”; (Test System: AMES SALMONELLA TYPHIMURIUM, Strain/Indicator: TA98, Metabolic Activation: RAT LIVER S-9, SODIUM BARBITAL AND BETA-NAPHTHAFLAVONE, Method: PREINCUBATION) “inactive; negative”; under setting [16], “inactive; negative”; (Test System: AMES SALMONELLA TYPHIMURIUM, Strain/Indicator: TA100, Metabolic Activation: RAT LIVER S-9, SODIUM BARBITAL AND BETA-NAPHTHAFLAVONE, Method: PREINCUBATION) “inactive; negative”.

With `Cc1c2ccccc2c(CCl)c2ccccc12`, the mutagenic call under setting [11] was “active; positive”.

As to `Cc1cc2c3ccccc3ccc2c2ccccc12`, the mutagenic call was “inactive; negative” (Test System: AMES SALMONELLA TYPHIMURIUM, Strain/Indicator: TA98, Metabolic Activation: RAT, LIVER, CYTOSOL, AROCLOR 1254, Method: STANDARD PLATE); “inactive; negative” (Test System: AMES SALMONELLA TYPHIMURIUM, Strain/Indicator: TA98, Metabolic Activation: RAT, LIVER, MICROSOMES, AROCLOR 1254, Method: STANDARD PLATE); “inactive; negative” (Test System: AMES SALMONELLA TYPHIMURIUM, Strain/Indicator: TA100, Metabolic Activation: RAT, LIVER, MICROSOMES, 6-METHYLCHRYSENE, Method: STANDARD PLATE); “inactive; negative” (Test System: AMES SALMONELLA TYPHIMURIUM, Strain/Indicator: TA100, Metabolic Activation: RAT, LIVER, MICROSOMES, AROCLOR 1254, Method: STANDARD PLATE); “inactive; negative” (Test System: AMES SALMONELLA TYPHIMURIUM, Strain/Indicator: TA100, Metabolic Activation: RAT, LIVER, MICROSOMES, Method: STANDARD PLATE).

Take `C=Cc1ccc(O)c(OC)c1`: the mutagenic call runs as follows: under setting [1], “inactive; negative”; under setting [2], “inactive; negative”; under setting [3], “inactive; negative”; under setting [4], “inactive; negative”; under setting [5], “inactive; negative”; under setting [6], “inactive; negative”. Besides, the mutagenic call was “inactive; negative” under setting [7]; “inactive; negative” under setting [8]; “inactive; negative” under setting [9]; “inactive; negative” under setting [10]; “inactive; negative” under setting [11]; “inactive; negative” under setting [12]. Besides, the mutagenic call reads like this: under setting [13], “inactive; negative. reevaluation of results: equivocal”; under setting [14], “inactive; negative. reevaluation of results: negative”.

With `Nc1ccc(/C=C/c2cccc(Cl)c2)cc1`, the mutagenic call (Test System: AMES SALMONELLA TYPHIMURIUM, Strain/Indicator: TA98(1,8-DNP6), Metabolic Activation: NONE, Method: STANDARD PLATE) was “inactive; negative”; the mutagenic call (Test System: AMES SALMONELLA TYPHIMURIUM, Strain/Indicator: TA98(1,8-DNP6), Metabolic Activation: S-9, Method: STANDARD PLATE) is “active; positive”; the mutagenic call under setting [2] was “active; positive”; the mutagenic call (Test System: AMES SALMONELLA TYPHIMURIUM, Strain/Indicator: TA98, Metabolic Activation: S-9, Method: STANDARD PLATE) is “active; positive”; the mutagenic call under setting [5] is “inactive; negative”; the mutagenic call (Test System: AMES SALMONELLA TYPHIMURIUM, Strain/Indicator: TA100, Metabolic Activation: S-9, Method: STANDARD PLATE) was “active; positive”.

Take `CN1CCc2cc3c(c4c2[C@H]1[C@H](O)c1ccccc1-4)OCO3`: the mutagenic call (Test System: AMES SALMONELLA TYPHIMURIUM, Strain/Indicator: TA98, Metabolic Activation: RAT, LIVER, S-9, PHENOBARBITAL AND BETA-NAPHTHOFLAVONE, Method: PREINCUBATION) is “active; positive” and the mutagenic call (Test System: AMES SALMONELLA TYPHIMURIUM, Strain/Indicator: TA100, Metabolic Activation: RAT, LIVER, S-9, PHENOBARBITAL AND BETA-NAPHTHOFLAVONE, Method: PREINCUBATION) was “active; positive”.
